Measurements taken from patent publication US8232298B2, “Inhibitors of the interaction between MDM2 and P53” (Janssen Pharmaceutica N.V., priority 2006, dated 2012).
Like-named read-outs stand apart in the source and are kept apart here.

Legend:
p53 in A2780 cells = assay: p53 ELISA: capacity to preserve p53 in A2780 cells; type: cell-based; settings: treated with compound for 16 hours, in M
Procedure: The capacity of the compounds to preserve p53 in A2780 cells was measured with the p53 enzyme linked immunosorbent assay. The p53 assay is a “sandwich” enzyme immunoassay employing two polyclonal antibodies. A polyclonal antibody, specific for the p53 protein, has been immobilized onto the surface of the plastic wells. Any p53 present in the sample to be assayed will bind to the capture antibody. The biotinylated detector polyclonal antibody also recognizes p53 protein, and will bind to any p53, which has been retained by the capture antibody. The detector antibody, in turn, is bond by horseradish peroxidase-conjugated streptavidin. The horseradish peroxidase catalyses the conversion of the chromogenic substrate o-phenylene diamine, the intensity of which is proportional to the amount of p53 protein bond to the plate. The colored reaction product is quantified using a spectrophotometer. Quantitation is achieved by the construction of a standard curve using known concentrations of purified recombinant HIS tagged p53 protein (see example C.1.).
A2780 cells (ATCC) were cultivated in RPMI 1640 supplemented with 10% fetal calf serum (FCS), 2 mM L-glutamine and gentamycin at 37° C. in a humidified incubator with 5% CO2.
A2780 cells were seeded at 20.000 cells per well in a 96 well plate, cultured for 24 hours and treated with compound for 16 hours at 37° C. in a humidified incubator. After incubation, the cells were washed once with phosphate-buffered saline and 30 μl, per well, low salt RIPA buffer (20 mM tris, pH7.0, 0.5 mM EDTA, 1% Nonidet P40, 0.5% DOC, 0.05% SDS, 1 mM PMSF, 1 μg/ml aprotinin and 0.5 μ/ml leupeptin) was added. Plates were placed on ice for 30 minutes to complete the lysis. p53 protein was detected in de lysates by using the sandwich ELISA, described below.
High binding polystyrene EIA/RIA 96 well plates (Costar 9018) were coated with the capture antibody pAb1801 (Abeam ab28-100) at a concentration of 1 μg/ml in coating buffer (0.1 M NaHCO3 pH8.2), 50 μl per well. The antibody was allowed to adhere overnight at 4° C. Coated plates were washed once with phosphate-buffered saline (PBS)/0.05% Tween 20 and 300 μl of blocking buffer (PBS, 1% bovine serum albumins (BSA)) was added, for an incubation period of 2 hours at room temperature. Dilutions of purified recombinant HIS tagged p53 protein, ranging from 3-200 ng/ml, were made in blocking buffer and used as standards.
Plates were washed twice with PBS/0.05% Tween 20 and blocking buffer or standards were added at 80 μl/well. To the standards, 20 μl of lysis buffer was added. The samples were added to the other wells at 20 μl lysate/well. After an overnight incubation at 4° C., plates were washed twice with PBS/0.05% Tween 20. Aliquots of 100 μl secondary polyclonal antibody p53(FL-393) (Tebubio, sc-6243) at a concentration of 1 μg/ml in blocking buffer were added to each well and allowed to adhere for 2 hours at room temperature. Plates were washed three times with PBS /0.05% Tween 20. Detection antibody anti-rabbit HRP (sc-2004, Tebubio) at 0.04 μg/ml in PBS/1% BSA was added and incubated for 1 hour at room temperature. Plates were washed three times with PBS/0.05% Tween 20 and 100 μl of substrate buffer was added (substrate buffer was prepared shortly before use by adding 1 tablet of 10 mg o-phenylene diamine (OPD) from Sigma and 125 μl 3% H2O2 to 25 ml OPD buffer: 35 mM citric acid, 66 mM Na2HPO4, pH5.6). After 5 to 10 minutes, colour reaction was stopped by adding 50 μl stop buffer (1 M H2SO4) per well. The absorbance at dual wavelengths of 490/655 nm was measured using a Biorad micro plate reader and the results were then analyzed.
For each experiment, controls (containing no drug) and a blank incubation (containing no cells or drugs) were run in parallel. The blank value was subtracted from all control and sample values. For each sample, the value of p53 (in absorbance units) was expressed as the percentage of the value for p53 present in the control. […]

U87MG cells = assay: Proliferation assay (MTT) on U87MG tumour cells; type: cell-based; settings: Homo sapiens, U-87 MG
Procedure: Cellular activity of the compounds of formula (I) was determined on U87MG tumour cells using a colorimetric assay for cell toxicity or survival (see example C.2).
U87MG cells are human glioblastoma cells with wild type p53. In this cell line MDM2 tightly controls p53 expression.
All compounds tested were dissolved in DMSO and further dilutions were made in culture medium. Final DMSO concentrations never exceeded 0.1% (v/v) in cell proliferation assays. Controls contained U87MG cells and DMSO without compound and blanks contained DMSO but no cells.
U87MG cells were seeded in 96-well cell culture plates at 3000 cells/well/100 μl. 24 hours later, medium was changed and compound and/or solvent were added to a final volume of 200 μl. Following 4 days of incubation, medium was replaced by 200 μl fresh medium and cell growth was assessed using a MTT-based assay. Therefore, 25 μl of the MTT solution (0.5% MTT research grade from Serva in phosphate-buffered saline ) was added to each well and the cells were further incubated for 2 hours at 37° C. The medium was then carefully aspirated and the blue MTT-formazan product was dissolved by adding to each well 25 μl 0.1M glycin and 100 μl DMSO. The plates were shaken for another 10 min on a micro plate shaker before reading absorbance at 540 nm by a Biorad micro plate reader.
Within an experiment, the results for each experimental condition are the mean of 3 replicate wells. For initial screening purposes, compounds were tested at a single fixed concentration of 10^−5 M. For active compounds, the experiments were repeated to establish full concentration-response curves. For each experiment, controls (containing no drug) and a blank incubation (containing no cells or drugs) were run in parallel. The blank value was subtracted from all control and sample values. For each sample, the mean value for cell growth (in absorbance units) was expressed as a percentage of the mean value for cell growth of the control. When appropriate, IC50-values (concentration of the drug, needed to reduce cell growth to 50% of the control) were computed using probit analysis for graded data (Finney, D. J., Probit Analyses, 2nd Ed. Chapter 10, Graded Responses, Cambridge University Press, Cambridge 1962). Herein the effects of test compounds are expressed as pIC50 (the negative log value of the IC50-value) (see table F-2).
In some of the experiments the proliferation assay was adapted for and used in 384-well culture plates (see table F-2).

[1] = 96 h, 96-well plates, 4 days of incubation, read-out: cell proliferation pIC50 96 well (converted)
[2] = 384-well culture plates, read-out: cell proliferation pIC50 384 well (converted)

| melting point [°C] | IC50 (U87MG cells; [1]) [µM] | IC50 (U87MG cells; [2]) [µM] | Structure (SMILES) | A2780 p53-elisa LAD (lowest dose giving at least 140% of the value for p53 present in the control) (p53 in A2780 cells) |
| --- | --- | --- | --- | --- |
| 182 | 4.37 |  | c1cnc2[nH]cc(CCNc3ccc(Nc4ccncc4)cc3)c2c1 [Compound 2] | 3.0E−06 |
|  |  | > 10 | c1cc(Nc2ccc(NCCc3c[nH]c4sccc34)cc2)ccn1 [Compound 6] | 1.0E−05 |
| 256 | 7.08 |  | c1cc(Nc2ccc(NCCc3cnc4n3CCCC4)cc2)ccn1 [Compound 3] | 3.0E−06 |

More lines, now with the values behind:

| Structure (SMILES) | melting point [°C] | IC50 (U87MG cells; [1]) [µM] | IC50 (U87MG cells; [2]) [µM] | A2780 p53-elisa LAD (lowest dose giving at least 140% of the value for p53 present in the control) (p53 in A2780 cells) |
| --- | --- | --- | --- | --- |
| c1ccc2c(CCNc3ccc(Nc4ccncc4)cc3)coc2c1 [Compound 1] | 152 to 154 | 3.24 |  | 1.0E−05 |
| c1cc(Nc2ccc(Nc3ccc4[nH]ccc4c3)cc2)ccn1 [Compound 4] |  |  | 1.41 | 1.0E−06 |
| COc1ccc2c(CCNc3ccc(Nc4ccncc4)cc3)coc2c1 [Compound 5] | 184 to 186 | 4.47 |  | 1.0E−05 |
